A short description of one series: physchem. As to conditions: octanol/water.
Series [1] is described as follows: Solubility of the compound. Format: physicochemical.

Values after ≈ are worked out from the molar mass of the structure shown.

As a reminder, the logD is the decadic logarithm of the distribution of all forms, ionised or not, between an organic phase and buffer at a given pH. A high value points to a more lipophilic compound. For orientation: solubility means how much of the substance goes into solution per volume. Higher therefore signals much dissolved substance.

Take `CC(C)Cn1c(=O)n(C)c(=O)c2c(C(=O)N3CC[C@@H](O)C3)c(Cc3ccnc4ccc(F)cc34)sc21`: in “physchem”, the logD came to 2.

In series [1], `CC(C)Cn1c(=O)n(C)c(=O)c2c(C(=O)N3CC[C@@H](O)C3)c(Cc3ccnc4ccccc34)sc21` returned a solubility of 500 µg/mL (≈ 1.02 mM).

In the series “physchem”, `CC(C)Cn1c(=O)n(C)c(=O)c2c(C(=O)N3C[C@H](O)CO3)c(Cc3c[nH]c4ncccc34)sc21` displayed a logD of 2.

In series [1], `Cc1n[nH]c(C)c1Cc1sc2c(c1C(=O)N1C[C@H](O)CO1)c(=O)n(C)c(=O)n2CC(C)C` returned a solubility of 2900 µg/mL (≈ 6.28 mM). Also, the logD in the series “physchem” stood at 1.1.

Take `CC(C)n1c(=O)n(C)c(=O)c2c(C(=O)N3CCS(=O)(=O)C3)c(Cc3ccccc3C(F)(F)F)sc21`: in the series “physchem”, the logD came out at 2.6.

In turn, `CON(C)C(=O)c1c(Cn2c(C)nc(Cl)c2Cl)sc2c1c(=O)n(C)c(=O)n2CC(C)C` came in with a logD in “physchem” of 2.3.

As to `CC(C)Cn1c(=O)n(C)c(=O)c2c(C(=O)N3CC[C@@H](O)C3)c(Oc3cccc4ccccc34)sc21`, in the series “physchem”, the logD came to 2.9.

`CC(C)Cn1c(=O)n(C)c(=O)c2c(C(=O)N3C[C@H](O)CO3)c(Cc3ccccc3C(F)(F)F)sc21` returned a log distribution coefficient (logD) in “physchem” of 3.2.

Turning to `CNc1nc2ccccc2n1Cc1sc2c(c1C(=O)N1C[C@H](O)CO1)c(=O)n(C)c(=O)n2CC(C)C`, the logD in the series “physchem” was found to be 1.8.

Values taken from ChEMBL document CHEMBL1139234, “Optimization of monocarboxylate transporter 1 blockers through analysis and modulation of atropisomer interconversion properties” (J Med Chem, 2007).
